≈ marks a conversion by molar mass, not a printed value. Where two headings read alike, the source gives them in different places.
What was measured:
T. rubrum [1] = test: MIC, modified CLSI M38A broth dilution; type: cell-based, Trichophyton rubrum; settings: for MIC Range / MIC50 / MIC90: T. rubrum, n = 6; for MIC / MIC50 / MIC90: Trichophyton rubrum
Procedure: (§1) Minimum Inhibitory Concentration (MIC): Minimum inhibitory concentrations of synthetic and semisynthetic and natural products against dermatophytes were determined using a modification of the Clinical Laboratory Standards Institute (CLSI, formerly National Committee of Clinical Laboratory Standards, NCCLS) M38A standard method for dermatophytes, while MIC of these agents against Candida species were determined using the CLSI M27-A2 methodology. The method used to determine the MIC against bacteria was based on the CLSI document M7-A7.
For dermatophytes, serial dilutions of terbinafine, tolnaftate were prepared in a range of 0.004-2 μg/ml, while for miconazole concentrations ranged between 0.015-8 μg/ml. Finally, for essential oils, the concentrations tested were between 0.03-16 μg/ml. The only exception was tea tree oil where dilutions were prepared in a range of 0.0078-4 μg/ml. The MIC was read at 4 days post inoculation and defined as the lowest concentration of an agent to inhibit 80% of fungal growth as compared to the growth control (Table 2).

C. albicans = test: MIC, CLSI M27-A2; type: cell-based, Candida albicans
Procedure: as §1
The remaining essential oils were prepared in a dilution range of 0.03-16 μg/ml. For Candida the MIC was read at 24 hours and defined as the lowest concentration to inhibit 50% of fungal growth as compared to the growth control (Table 4).

T. rubrum [2] = test: Pre-treatment insole assay, combination (FIG. 10); type: cell-based, Trichophyton rubrum; settings: 0.01% synthetic agent, 3% tea tree oil, singly or combined
Procedure: Pre-treatment assays: To evaluate the ability of different agents to prevent fungal contaminations of shoes, PDA plates were prepared on which 10^4 T. mentagrophytes cells were evenly spread. Next, discs from insoles and leather were treated as follows (with either agent or control vehicle): discs were pretreated with a single spray, spraying for 15 second or 30 second. Other discs were immersed in agent or vehicle for 30 min. Following this treatment, discs were air-dried by placing them in a Petri plate for 1 min. These dried discs were then placed (drug side down) on the seeded PDA plates. Plates were then incubated for 4 days at 30° C. Following incubation, fungal growth was recorded. […] Diameter of the clearance zone (CZD) was measured. The relative activity of different agents and control were assessed. […] To determine whether using combination of synthetic compounds and essential oils will allow the use of low concentrations of synthetic drugs, we tested the ability of combination of 0.01% tolnaftate and 3% tea tree oil to prevent shoe contamination using the pre- and post-treatment insole bioassays described above.

T. mentagrophytes [3] = test: Scanning electron microscopy of treated discs; type: cell-based, Trichophyton mentagrophytes; settings: for SEM: fungal growth on insole, post-contamination treatment / SEM: fungal growth on insole, pretreatment: insole biopsy disc; for SEM: fungal growth on leather, pretreatment: leather biopsy disc
Procedure: Scanning electron microscopy (SEM) was used to monitor the ability of agents to eradicate fungal growth on shoe insoles or leather biopsy discs. Pre- and post-treated discs were processed for SEM by the method of Chandra et al. One set of discs was used as a control in which no drug pre- or post-treatment was performed. In addition, one set of biopsy discs was used as blank where no fungal cells or drug were added. Following treatment, discs were fixed with 2% glutaraldehyde for 2 h, and then washed with sodium cacodylate buffer (three times for 10 minutes each). The discs were then treated with 1% osmium tetraoxide (for 1 h at 4° C.) followed by a series of washing with sodium cacodylate buffer, followed by a two times washing with distilled water. Next, the discs were treated with 1% tannic acid washed three times with distilled water, and followed by 1% uranyl acetate with two water washings. The samples were then dehydrated through a series of ethanol solutions (range from 25% (vol/vol) ethanol in distilled water to absolute ethanol). Prepared samples were then sputter coated with Au/Pd (60/40) and viewed with Amray 1000B scanning electron microscope.

T. mentagrophytes [4] = test: Pre-treatment leather biopsy disc assay; type: cell-based, Trichophyton mentagrophytes
Text: (§2) Based on the above experiments, our disc biopsy assay employed Dr. Scholl's insole and leather discs as the optimal substrates representing materials used in shoes, and 30% isopropanol as the optimal vehicle to dissolve the agents to be tested in pre-treatment and post-treatment studies. Two types of disc biopsy assays were used to evaluate the ability of different synthetic and natural substances to disinfect shoe material: (a) Pre-treatment assay: where discs were pre-treated with antifungals first and then infected with T. mentagrophytes, and (b) Post-treatment assay: where discs were first infected with T. mentagrophytes, then treated with drugs. These assays reveal the ability of different agents to prevent and treat shoe fungal contamination, respectively. Pre-treatment assays: To evaluate the ability of different agents to prevent fungal contaminations of shoes, PDA plates were prepared on which 10^4 T. mentagrophytes cells were evenly spread. Next, discs from insoles and leather were treated as follows (with either agent or control vehicle): discs were pretreated with a single spray, spraying for 15 second or 30 second. Other discs were immersed in agent or vehicle for 30 min. Following this treatment, discs were air-dried by placing them in a Petri plate for 1 min. These dried discs were then placed (drug side down) on the seeded PDA plates. Plates were then incubated for 4 days at 30° C. Following incubation, fungal growth was recorded. […] Diameter of the clearance zone (CZD) was measured. The relative activity of different agents and control were assessed.

T. mentagrophytes [5] = test: Post-treatment leather biopsy disc assay; type: cell-based, Trichophyton mentagrophytes
Text: (§3) Based on the above experiments, our disc biopsy assay employed Dr. Scholl's insole and leather discs as the optimal substrates representing materials used in shoes, and 30% isopropanol as the optimal vehicle to dissolve the agents to be tested in pre-treatment and post-treatment studies.
(§4) Two types of disc biopsy assays were used to evaluate the ability of different synthetic and natural substances to disinfect shoe material: (a) Pre-treatment assay: where discs were pre-treated with antifungals first and then infected with T. mentagrophytes, and (b) Post-treatment assay: where discs were first infected with T. mentagrophytes, then treated with drugs. These assays reveal the ability of different agents to prevent and treat shoe fungal contamination, respectively.
(§5) Post-treatment assays: To evaluate the ability of various agents to treat infected shoes, PDA plates were prepared on which […] T. mentagrophytes cells were evenly spread on their surface. Next, untreated biopsy discs were placed on these PDA plates and incubated for 4 days at 30° C. Incubating the biopsy discs in this manner allowed the fungi to invade the discs. Infected discs were picked and post-treated with different agents by spraying. Post-treated discs were allowed to air dry and were then placed on fresh, uninoculated PDA plates and incubated for 4 additional days at 30° C. Incubation of the discs under these conditions allows any fungi that are not killed by the sprayed agent to grow. In other words, agents that are effective in the treatment of shoe material will not show any fungal growth around the disc biopsy (FIG. 1C). In contrast, discs treated with ineffective agents will show fungal growth emanating from them (FIG. 1D). Diameter of the growth zone (GZD) was determined as a measure of the activity of the agent tested.

T. mentagrophytes [6] = test: Pre-treatment insole biopsy disc assay; type: cell-based, Trichophyton mentagrophytes
Text: as §2

T. mentagrophytes [7] = test: Post-treatment insole biopsy disc assay; type: cell-based, Trichophyton mentagrophytes
Text: as §3, §4, §5

T. rubrum [8] = test: Post-treatment insole assay, combination (FIG. 10); type: cell-based, Trichophyton rubrum; settings: 0.01% tolnaftate, 3% tea tree oil, singly or combined
[9] = C. albicans strain 8280 (multi-resistant)
[10] = Candida albicans, 24 h, C. albicans strain 1740, 50% inhibition, 24 hours, read-out: MIC
[11] = Candida albicans, C. albicans strain 2108, read-out: MIC
[12] = Candida albicans, C. albicans strain 2153, read-out: MIC
[13] = Candida albicans, C. albicans strain 8280 (multi-resistant), read-out: MIC
[14] = Candida albicans, C. albicans strain 8283, read-out: MIC
[15] = Candida albicans, C. albicans strain 8364, read-out: MIC
[16] = Candida albicans, C. albicans, n = 6

MIC Range (T. rubrum [1]) [µg/mL]	MIC (T. rubrum [1]; T. rubrum strain 1967) [µg/mL]	MIC (T. rubrum [1]; T. rubrum strain 2098) [µg/mL]	MIC (T. rubrum [1]; T. rubrum strain 2246) [µg/mL]	MIC (T. rubrum [1]; T. rubrum strain 8063) [µg/mL]	MIC (T. rubrum [1]; T. rubrum strain 8071) [µg/mL]	MIC (T. rubrum [1]; T. rubrum strain 8092) [µg/mL]	MIC50 (T. rubrum [1]) [µg/mL]	MIC90 (T. rubrum [1]) [µg/mL]	MIC (C. albicans; [9]) [µg/mL]	MIC (C. albicans; [10]) [µg/mL]	MIC (C. albicans; [11]) [µg/mL]	MIC (C. albicans; [12]) [µg/mL]	MIC (C. albicans; [13]) [µg/mL]	MIC (C. albicans; [14]) [µg/mL]	MIC (C. albicans; [15]) [µg/mL]	MIC50 (C. albicans; [16]) [µg/mL]	MIC90 (C. albicans; [16]) [µg/mL]	Structure (SMILES)	SEM: fungal growth on insole, post-contamination treatment (T. mentagrophytes [3])	SEM: fungal growth on insole, pretreatment (T. mentagrophytes [3])	other results
0.008 to 0.015	0.015 (≈ 0.0515 µM)	0.015 (≈ 0.0515 µM)	0.008 (≈ 0.0275 µM)	0.015 (≈ 0.0515 µM)	0.015 (≈ 0.0515 µM)	0.015 (≈ 0.0515 µM)	0.015 (≈ 0.0515 µM)	0.015 (≈ 0.0515 µM)	>64	1 (≈ 3.43 µM)	0.5 (≈ 1.72 µM)	0.5 (≈ 1.72 µM)	≥ 64	0.5 (≈ 1.72 µM)	2 (≈ 6.86 µM)	0.5 (≈ 1.72 µM)	2 (≈ 6.86 µM)	CN(C/C=C/C#CC(C)(C)C)Cc1cccc2ccccc12 [Terbinafine, terbinafine]	complete clearance of fungal growth	completely eradicated fungal growth	effect of pretreatment of insoles on fungal growth (T. rubrum [2]): did not result in any inhibition of fungal growth; SEM: fungal growth on leather, pretreatment (T. mentagrophytes [3]): completely eradicated fungal growth; Leather Pretreatment (CZD) (T. mentagrophytes [4]; 1% spray in 30% isopropanol): 85 mm; Leather Post-contamination Treatment (GZD) (T. mentagrophytes [5]; 1% spray in 30% isopropanol): 0 mm; Insoles Pretreatment (CZD, clearance zone diameter) (T. mentagrophytes [6]; 1% spray in 30% isopropanol): 85 mm; MIC (C. albicans; Candida albicans, C. albicans, 5 strains, read-out: MIC values): 0.5 to 2 µg/mL (≈ 1.72 to 6.86 µM); Insoles Post-contamination Treatment (GZD, growth zone diameter) (T. mentagrophytes [7]; 1% spray in 30% isopropanol): 0 mm
0.008 to 0.015	0.015 (≈ 0.0488 µM)	0.015 (≈ 0.0488 µM)	0.008 (≈ 0.026 µM)	0.008 (≈ 0.026 µM)	0.015 (≈ 0.0488 µM)	0.015 (≈ 0.0488 µM)	0.015 (≈ 0.0488 µM)	0.015 (≈ 0.0488 µM)	>64	> 64	64 (≈ 208 µM)	> 64	> 64	> 64	> 64	> 64	> 64	Cc1cccc(N(C)C(=S)Oc2ccc3ccccc3c2)c1 [Tolnaftate, tolnaftate]	minimally effective	completely eradicated fungal growth	SEM: fungal growth on leather, pretreatment (T. mentagrophytes [3]): did not completely eradicate dermatophyte growth; effect of post-contamination treatment of insoles on fungal growth (T. rubrum [8]): did not prevent growth of fungus; Leather Pretreatment (CZD) (T. mentagrophytes [4]; 1% spray in 30% isopropanol): 18 mm; Leather Pretreatment (CZD) (T. mentagrophytes [4]; 1% spray in 30% isopropanol, listed as tolnaftate): 16 mm; Leather Pretreatment (CZD) (T. mentagrophytes [4]; 2% spray in 30% isopropanol): 6 mm; Leather Post-contamination Treatment (GZD) (T. mentagrophytes [5]; 1% spray in 30% isopropanol): 11 mm; Leather Post-contamination Treatment (GZD) (T. mentagrophytes [5]; 2% spray in 30% isopropanol): 11 mm; Insoles Pretreatment (CZD, clearance zone diameter) (T. mentagrophytes [6]; 1% spray in 30% isopropanol): 25 mm; Insoles Pretreatment (CZD, clearance zone diameter) (T. mentagrophytes [6]; 2% spray in 30% isopropanol): 10 mm; Insoles Pretreatment (CZD, clearance zone diameter) (T. mentagrophytes [6]; 2% spray in 30% isopropanol, listed as tolnaftate): 11 mm; preventive activity against dermatophytes infecting shoes (T. mentagrophytes [6]; acetone as vehicle): potent preventive activity; MIC Range (C. albicans; C. albicans, n = 6): > 64 µg/mL; Insoles Post-contamination Treatment (GZD, growth zone diameter) (T. mentagrophytes [7]; 1% spray in 30% isopropanol): 8 mm; Insoles Post-contamination Treatment (GZD, growth zone diameter) (T. mentagrophytes [7]; 2% spray in 30% isopropanol): 10 mm; fungal regrowth from established contamination (T. mentagrophytes [7]; 4% (w/v) in acetone, insole disc): no fungal regrowth was observed

Structure (SMILES)	MIC Range (T. rubrum [1]) [µg/mL]	MIC (T. rubrum [1]; T. rubrum strain 1967) [µg/mL]	MIC (T. rubrum [1]; T. rubrum strain 2098) [µg/mL]	MIC (T. rubrum [1]; T. rubrum strain 2246) [µg/mL]	MIC (T. rubrum [1]; T. rubrum strain 8063) [µg/mL]	MIC (T. rubrum [1]; T. rubrum strain 8071) [µg/mL]	MIC (T. rubrum [1]; T. rubrum strain 8092) [µg/mL]	MIC50 (T. rubrum [1]) [µg/mL]	MIC90 (T. rubrum [1]) [µg/mL]	MIC (C. albicans; [9]) [µg/mL]	MIC (C. albicans; [10]) [µg/mL]	MIC (C. albicans; [11]) [µg/mL]	MIC (C. albicans; [12]) [µg/mL]	MIC (C. albicans; [13]) [µg/mL]	MIC (C. albicans; [14]) [µg/mL]	MIC (C. albicans; [15]) [µg/mL]	MIC50 (C. albicans; [16]) [µg/mL]	MIC90 (C. albicans; [16]) [µg/mL]	SEM: fungal growth on insole, post-contamination treatment (T. mentagrophytes [3])	SEM: fungal growth on insole, pretreatment (T. mentagrophytes [3])	other results
Clc1ccc(COC(Cn2ccnc2)c2ccc(Cl)cc2Cl)c(Cl)c1 (stereo not shown) [Miconazole, miconazole]	0.125 to 0.25	0.125 (≈ 0.3 µM)	0.125 (≈ 0.3 µM)	0.125 (≈ 0.3 µM)	0.125 (≈ 0.3 µM)	0.25 (≈ 0.601 µM)	0.25 (≈ 0.601 µM)	0.125 (≈ 0.3 µM)	0.25 (≈ 0.601 µM)	>16	1 (≈ 2.4 µM)	2 (≈ 4.81 µM)	1 (≈ 2.4 µM)	> 16	16 (≈ 38.4 µM)	2 (≈ 4.81 µM)	2 (≈ 4.81 µM)	16 (≈ 38.4 µM)	–	–	MIC (C. albicans; Candida albicans, C. albicans, another isolate, read-out: MIC): 16 µg/mL (≈ 38.4 µM); MIC (C. albicans; Candida albicans, C. albicans, four isolates, read-out: MIC): 1 to 2 µg/mL (≈ 2.4 to 4.81 µM)

Reference: US20080220103A1, “METHOD FOR TREATING/CONTROLLING/KILLING FUNGI AND BACTERIA ON LIVING ANIMALS” (priority 2005, published 2008)
